Source: patent US7888042B2, “Methods for identifying insulin mimetics” (Ohio University, priority 2005, dated 2011)

Legend:
ob/ob mice [1] = test: Glucose tolerance test in ob/ob mice, oral dose; type: in vivo
Method: (§1) Either 6-8 week old male db/db mice or 8-12 week old male ob/ob mice were treated with aqueous solutions of α-PGG by either oral delivery (˜10 μL, A & B) or ip injection (˜50 μL, C, & D). (n=8-10, mean±SD, one-way ANOVA). α-PGG (●); vehicle (∘). α-PGG (20 mg/kg) was orally delivered without glucose to fasting db/db mice (A *, P<0.02; **, P<0.01; ***, P<0.001) or with glucose (0.4 g/kg body weight) to fasting ob/ob mice (B, glucose tolerance test). α-PGG (20 mg/kg) was ip injected into ob/ob mice on day 0 and day 4 (C). A single ip injection (20 mg/kg) of α-PGG was administered to ob/ob mice (D). Glucose (A, B, C) or insulin (D) was determined from sera or plasma isolated from tail vein blood. Animal studies. Genetically diabetic db/db mice or obese ob/ob mice were purchased from Jackson Lab. Male mice of 2-3 months of age were used. Unless otherwise stated, 10 mice (N=10) were used per group. α-PGG was either orally administered or intraperitoneally (ip) injected in the form of an aqueous solution at 20 mg/kg body weight with a 1-cc sterile plastic syringe. At different times after the α-PGG administration, blood or plasma was collected from the tail vein for measurement of glucose and insulin concentrations using commercial kits. Vehicle (aqueous solution) treated mice were used as controls and were statistically compared with the α-PGG treated mice. All animal studies were conducted in accord with the Ohio University guidelines for the use and care of laboratory animals.

ob/ob mice [2] = test: Plasma insulin in ob/ob mice, ip injection; type: in vivo; conditions: single ip injection 20 mg/kg
Method: as §1, with “All animal studies were conducted in accord with the Ohio University guidelines for the use and care of laboratory animals.” left out

insulin = insulin (Bos taurus, UniProt P01317); test: Binding of α-PGG to insulin
insulin, sequence (P01317 25-54 limits assumed): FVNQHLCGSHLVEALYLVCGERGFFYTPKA

PI-3 kinase = PI-3 kinase activity, radioactive TLC method; type: cell-based; conditions: CHO-IR cells
Method: (§2) (A) Glucose transport was measured by determining [^3H]-2-deoxyglucose uptake stimulated by either insulin or α-PGG in 3T3-L1 cells in the presence or absence of HNMPA-(AM)3, an inhibitor of IR tyrosine kinase activity (24); wortmannin, an inhibitor of PI 3-kinase (25), or cytochalasin B, an inhibitor of GLUT4 (26), (n=4, mean±SD). (B) Cells were induced by 20 or 40 μM α-PGG or 100 nM insulin for 15 min. Cell lysates were separated by PAGE and analyzed for phosphorylation of IR (in CHO-IR cells) or Akt (in adipocytes) using antibodies specific to the target proteins. (C) Cells were treated with α-PGG and insulin in a fashion similar to (B) and assayed for their respective PI-3 kinase activity with a radioactive TLC method (27). (D) In similar experiments, intact cells were analyzed by confocal microscopy for translocation of GLUT4 using anti-GLUT4 antibodies.
(§3) Protein phosphorylation/activation and GLUT4 translocation. To investigate signal transduction induced by α-PGG, proteins from 3T3-L1 adipocytes or CHO-IR cells (23), which were treated with α-PGG or insulin for 15 min, were isolated, separated by PAGE, blotted on nylon membranes, and analyzed by Western blotting with antibodies against either IR or Akt. […]

GLUT4 = GLUT4 translocation, confocal microscopy; type: cell-based; conditions: adipocytes, 37° C., 15 min
Method: as §2, §3

Akt = Akt phosphorylation, Western blot; type: cell-based; conditions: 3T3-L1 adipocytes, 20 or 40 μM, 15 min
Method: as §2, §3

ob/ob mice [3] = test: Blood glucose in ob/ob mice, ip injection; type: in vivo; conditions: ip 20 mg/kg on day 0 and day 4, P<0.001
Method: as §1, with “All animal studies were conducted in accord with the Ohio University guidelines for the use and care of laboratory animals.” left out

In the case of `O=C(OC[C@H]1O[C@H](OC(=O)c2cc(O)c(O)c(O)c2)[C@H](OC(=O)c2cc(O)c(O)c(O)c2)[C@@H](OC(=O)c2cc(O)c(O)c(O)c2)[C@@H]1OC(=O)c1cc(O)c(O)c(O)c1)c1cc(O)c(O)c(O)c1` [α-PGG, alpha 1,2,3,4,6-penta-O-galloyl-D-Glucopyranose], the “duration of blood glucose difference” value (ob/ob mice [1]; oral 20 mg/kg) was “at least 5 h”, the “largest difference in glucose levels vs control group” value (ob/ob mice [1]; oral 20 mg/kg) was “about 20%” and the glucose tolerance (ob/ob mice [1]; single oral dose 20 mg/kg with glucose 0.4 g/kg) was “significantly improved”. The plasma insulin levels (ob/ob mice [2]; hyperinsulinemic ob/ob mice) was “significantly lower”, the “duration of anti-hyperinsulinemic effects” value (ob/ob mice [2]; ob/ob mice) was “at least 24 hours” and the binding to insulin (insulin) was “did not bind to insulin”. For the same molecule, the PI-3 kinase activity (PI-3 kinase) was “activates PI-3 kinase”, the GLUT4 translocation (GLUT4) was “translocated to the plasma membrane” and the Akt phosphorylation (Akt) was “phosphorylated in 3T3-L1 adipocytes in a dose-dependent fashion”. The blood glucose levels (ob/ob mice [3]) was “significantly and consistently lowered”.
